The source of these data is ChEMBL document CHEMBL1201862, “PubChem BioAssay data set” (2004).

Experiment in all cases: growth of human tumour cells (NCI), 48 h
Assay [1] has as its system 786-0.
For assay [2], the system named is A498.
For assay [3], the system named is A549.
For assay [4], the system named is BT-549.
For assay [5], the system named is COLO 205.
The subject of assay [6] is DU-145.
In assay [7] the test system is HL-60.
Assay [8] has as its system HOP-92.
The test system of assay [9] is IGROV-1.
Assay [10] relates to MDA-N.
For assay [11], the system named is MOLT-4.
For assay [12], the system named is NCI/ADR-RES.
In assay [13] the test system is OVCAR-4.
Assay [14] has as its system PC-3.
Assay [15] concerns RPMI-8226.
For assay [16], the system named is SF-539.
In assay [17] the test system is SK-MEL-28.
Assay [18] has as its system SK-OV-3.
Assay [19] concerns SNB-19.
Assay [20] relates to UO-31.

The structures appear in SMILES notation.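 Assay format: 96-well plates, 48-hour exposure. GI50 = concentration required for 50% inhibition of growth.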 Activity calls are given as the source filed them. Rule as the data show it: active = GI50 up to about 1.1 µM and inactive = higher. Where a SMILES comes first, the peptide text is derived from it. The star is where a group is joined. Fmoc = O=C(OCC1c2ccccc2-c2ccccc21)*; OBn = c1ccc(CO*)cc1; tBu = CC(C)(C)* Bounds are passed on as bounds.

As to `O=C1N/C(=N/N=C/c2c[nH]c3ccccc23)N/C1=C\c1c[nH]c2ccccc12`, the GI50 in [1] is 17.8 µM (inactive); in assay [2], 12.7 µM (inactive); in [3] it was 18.9 µM (inactive); in [4] it was 20.3 µM (inactive); in assay [5], 13.8 µM (inactive); in [6] it was 30.2 µM (inactive). In addition, the GI50 is 18.9 µM (inactive) in assay [7]; 16.8 µM (inactive) in [8]; 19.1 µM (inactive) in assay [9]; 27.6 µM (inactive) in assay [10]; 10.5 µM (inactive) in assay [11]; 27.3 µM (inactive) in assay [12]. For the same molecule, the GI50 in assay [13] is 26.9 µM (inactive); in [14] it was 15.7 µM (inactive); in assay [15], 12.9 µM (inactive); in [16], 22.1 µM (inactive); in assay [17], 22.1 µM (inactive); in [18], 35.9 µM (inactive). Besides, the GI50 in [19] was 69.7 µM (inactive).

Turning to `c1ccc(SCCc2ccncc2)cc1`, the GI50 in assay [1] is > 100 µM (inactive); in assay [2] it was 70 µM (inactive); in assay [3], 84.5 µM (inactive); in assay [4], > 100 µM (inactive); in [5] it was > 100 µM (inactive); in [6], > 100 µM (inactive). Further, the GI50 in [7] is 50.6 µM (inactive); in [8] it was 45.7 µM (inactive); in assay [9], > 100 µM (inactive); in assay [10], > 100 µM (inactive); in assay [11], 17.7 µM (inactive); in assay [12], 58.7 µM (inactive). The GI50 is 98.2 µM (inactive) in [13]; > 100 µM (inactive) in assay [14]; 20.5 µM (inactive) in assay [15]; > 100 µM (inactive) in assay [16]; > 100 µM (inactive) in assay [17]; > 100 µM (inactive) in assay [18]. Also, the GI50 in [19] was > 100 µM (inactive); in [20], 45.4 µM (inactive).

As for `Cc1occc1C(=S)Nc1ccc(Cl)c(/C=N/OC(C)C)c1`, the GI50 in assay [1] was 18.5 µM (inactive); in assay [2] it was 19.2 µM (inactive); in assay [3] it was 22.3 µM (inactive); in assay [4], 18.2 µM (inactive); in [5], 16.9 µM (inactive); in assay [6] it was 24 µM (inactive). Besides, the GI50 in assay [7] is 26.7 µM (inactive); in assay [8], 16.1 µM (inactive); in [9] it was 27.8 µM (inactive); in [10] it was 20.8 µM (inactive); in assay [11], 20.8 µM (inactive); in assay [12] it was 22.2 µM (inactive). Besides, the GI50 is 24.9 µM (inactive) in assay [13]; 24.9 µM (inactive) in [14]; 20 µM (inactive) in [15]; 16.7 µM (inactive) in assay [16]; 27 µM (inactive) in assay [17]; 24.3 µM (inactive) in [18]. Besides, the values for the GI50 in assay [19] and in assay [20] were 27.1 µM (inactive) and 19.4 µM (inactive), respectively.

For `CCc1nc2cc(/N=N/c3c(O)ccc4ccccc34)ccc2[nH]1`, the GI50 in [1] is 16.1 µM (inactive); in [2], 21.5 µM (inactive); in [3] it was 21.4 µM (inactive); in assay [4] it was 18.7 µM (inactive); in assay [5], 21.2 µM (inactive); in assay [6] it was 17 µM (inactive). The GI50 in [7] was 2.4 µM (inactive); in assay [8], 20.5 µM (inactive); in [9], 19.6 µM (inactive); in [10], 23.8 µM (inactive); in assay [11], 7.98 µM (inactive); in assay [12], 22.3 µM (inactive). The GI50 in assay [13] was 14 µM (inactive); in assay [14], 14.6 µM (inactive); in assay [15], 10.5 µM (inactive); in assay [16] it was 18.1 µM (inactive); in [17] it was 20.3 µM (inactive); in assay [18], 24.7 µM (inactive). The GI50 in assay [19] was 31.3 µM (inactive); in [20] it was 18.8 µM (inactive).

Consider `CCCCOCCOC1=CC(=O)c2c(O)ccc(O)c2C1=O`, for which the GI50 in assay [1] is 1.67 µM (inactive); in [2] it was 1.64 µM (inactive); in [3] it was 1.75 µM (inactive); in [4], 1.63 µM (inactive); in [5] it was 1.14 µM (inactive); in assay [6] it was 1.78 µM (inactive). Also, the GI50 in [7] was 0.506 µM (active); in assay [8], 2.56 µM (inactive); in [9], 1.91 µM (inactive); in assay [10], 0.185 µM (active); in assay [11] it was 1.28 µM (inactive); in assay [12] it was 2.12 µM (inactive). The GI50 in assay [13] was 1.92 µM (inactive); in assay [14], 2.59 µM (inactive); in assay [15], 2.91 µM (inactive); in assay [16], 1.58 µM (inactive); in [17] it was 1.62 µM (inactive); in assay [18] it was > 10 µM (inactive). Besides, the figures for the GI50 in assay [19] and in [20] were 1.75 µM (inactive) and 1.64 µM (inactive), respectively.

For `CC(OC(C)(C)C)C(NC(=O)OCC1c2ccccc2-c2ccccc21)C(=O)NC(Cc1ccccc1)C(=O)OCc1ccccc1` (centres undefined) (Fmoc-Thr(tBu)-Phe-OBn; configuration not given here), the GI50 in [1], in assay [2], in assay [3], in assay [4], in [5] and in assay [6] was > 100 µM (inactive) in each case. Further, the GI50 is > 100 µM (inactive) in [7]; > 21.2 µM (inactive) in assay [8]; > 100 µM (inactive) in assay [9]; > 100 µM (inactive) in assay [10]; > 61.9 µM (inactive) in assay [11]; > 100 µM (inactive) in assay [12]. The GI50 in assay [13] was > 100 µM (inactive); in [14] it was > 100 µM (inactive); in [15] it was > 71.8 µM (inactive); in assay [16] it was > 100 µM (inactive); in assay [17], > 100 µM (inactive); in [18] it was > 100 µM (inactive). Besides, the GI50 in [19] is > 100 µM (inactive); in assay [20], > 46.6 µM (inactive).

Regarding `Cc1ccc(S(=O)(=O)N2CC(CCN)c3ccccc32)cc1` (centres undefined), the GI50 was 3.89 µM (inactive) in assay [1]; 10.7 µM (inactive) in assay [2]; 9.51 µM (inactive) in [3]; 5.69 µM (inactive) in assay [4]; 4.06 µM (inactive) in assay [5]; 3.87 µM (inactive) in assay [6]. Further, the GI50 in assay [7] was > 100 µM (inactive); in assay [8], 4.19 µM (inactive); in assay [9] it was 3.28 µM (inactive); in assay [10] it was 0.883 µM (active); in assay [11] it was 28 µM (inactive); in assay [12], 5.61 µM (inactive). The GI50 in assay [13] is 17.5 µM (inactive); in assay [14], 3.64 µM (inactive); in assay [15], 6.01 µM (inactive); in assay [16], 3.17 µM (inactive); in [17], 5.16 µM (inactive); in assay [18], 5.5 µM (inactive). For the same molecule, the GI50 in assay [19] is 4.97 µM (inactive); in assay [20], 4.61 µM (inactive).

With `Cc1ccc(/N=N\c2c(O)c(S(=O)(=O)O)cc3cc(S(=O)(=O)O)ccc23)c(C)c1`, the GI50 in assay [1], in assay [2], in assay [3], in assay [4], in assay [5] and in assay [6] was > 100 µM (inactive) throughout. For the same molecule, the GI50 in [7], in [8], in assay [9], in [10], in [11] and in assay [12] was > 100 µM (inactive) throughout. The GI50 in assay [13], in assay [14], in assay [15], in assay [16], in assay [17] and in assay [18] was > 100 µM (inactive) throughout. Also, the GI50 in assay [19] and in assay [20] was > 100 µM (inactive) in each case.

Turning to `CC(C)Oc1c(-c2ccc(F)cc2)c(O)c2c3c1oc(=O)n3C=CC2C` (centres undefined), the GI50 in assay [1] is 14.7 µM (inactive); in [2], 15 µM (inactive); in [3], 13 µM (inactive); in assay [4], 14 µM (inactive); in assay [5], 16 µM (inactive); in assay [6], 13.1 µM (inactive). The GI50 in assay [7] is 10.4 µM (inactive); in assay [8], 13.9 µM (inactive); in assay [9], 15.3 µM (inactive); in assay [10] it was 12.4 µM (inactive); in assay [11] it was 6.07 µM (inactive); in assay [12], 13.8 µM (inactive). Moreover, the GI50 in assay [13] is 10.7 µM (inactive); in [14] it was 7.05 µM (inactive); in assay [15], 6.27 µM (inactive); in assay [16], 13.4 µM (inactive); in assay [17], 15.7 µM (inactive); in assay [18], 24 µM (inactive). Further, the GI50 is 15.8 µM (inactive) in assay [19] and 12.2 µM (inactive) in [20].

As to `CC(C)(Cc1ccccc1)NC1=NCCO1`, the GI50 in [1], in assay [2], in assay [3], in assay [4], in assay [5] and in assay [6] was > 100 µM (inactive) each time. Besides, the GI50 in [7], in [8], in assay [9], in [10], in assay [11] and in assay [12] was > 100 µM (inactive) throughout. The GI50 in assay [13], in [14], in [15], in assay [16], in assay [17] and in assay [18] was > 100 µM (inactive) each time. Also, the GI50 in assay [19] and in [20] was > 100 µM (inactive) each time.
